Reference: paper PMC9986876, “Prediction of Antileishmanial Compounds: General Model, Preparation, and Evaluation of 2-Acylpyrrole Derivatives” (Journal of Chemical Information and Modeling, 2022)

How the values were obtained:
[1] = tested on: L. donovani amastigotes; test: In vitro intracellular amastigote susceptibility assay in J774 macrophages; assay type: cell-based; details: for IC50: Leishmania donovani, L. donovani intracellular amastigotes in J774, 48 h, N/A = not active at 100 μg/mL
Experimental: The following species of Leishmania were used: L. donovani (MHOM/IN/80/DD8) was purchased (ATCC, USA) and L. amazonensis (MHOM/Br/79/Maria) was kindly provided by Prof. Alfredo Toraño (Instituto de Salud Carlos III, Madrid). Promastigotes were cultured in Schneider’s insect medium supplemented with 10% heat-inactivated fetal bovine serum (FBS) and 1000 U/L of penicillin plus 100 mg/L of streptomycin in 25 mL culture flasks at 26 °C. The assay was carried out as previously described.[29] Briefly, 5 × 10^4 J774 macrophages and stationary promastigotes in a 1:5 ratio were seeded in each well of a microtiter plate, suspended in 200 μL of culture medium, and incubated for 24 h at 33 °C in a 5% CO2 chamber. After this first incubation, the temperature was increased up to 37 °C for another 24 h. Thereafter, cells were washed several times in culture medium by centrifugation at 1.500g for 5 min in order to remove free non-internalized promastigotes. Finally, the supernatant was replaced by 200 μL/well of culture medium containing 2-fold serial dilutions of the test compounds as in promastigotes assay. Growth control and signal-to-noise were also included. Following incubation for 48 h at 37 °C and 5% CO2, the culture medium was replaced by 200 μL/well of the lysis solution (RPMI-1640 with 0.048% HEPES and 0.01% SDS) and incubated at room temperature for 20 min. Thereafter, the plates were centrifuged at 3.500g for 5 min and the lysis solution was replaced by 200 μL/well of Schneider’s insect medium. The culture plates were then incubated at 26 °C for another 4 days to allow transformation of viable amastigotes into promastigotes and proliferation. Afterward, 20 μL/well of 2.5 mM resazurin was added and incubated for another 3 h. Finally, fluorescence emission was measured and IC50 was estimated as described above. All tests were carried out in triplicate. […] The IC50 and SI were calculated as in the previous section.

[2] = tested on: L. amazonensis (MHOM/Br/79/Maria) promastigotes; test: In vitro promastigote susceptibility assay (resazurin); assay type: cell-based; details: for SI (selectivity index, SI = CC50/IC50): CC50 J774 / IC50 L. amazonensis promastigotes; for IC50: Leishmania amazonensis, L. amazonensis promastigotes, 48 h at 26 °C, triplicate, N/A = not active at 100 μg/mL
Experimental: (§1) The following species of Leishmania were used: L. donovani (MHOM/IN/80/DD8) was purchased (ATCC, USA) and L. amazonensis (MHOM/Br/79/Maria) was kindly provided by Prof. Alfredo Toraño (Instituto de Salud Carlos III, Madrid). Promastigotes were cultured in Schneider’s insect medium supplemented with 10% heat-inactivated fetal bovine serum (FBS) and 1000 U/L of penicillin plus 100 mg/L of streptomycin in 25 mL culture flasks at 26 °C. […] New samples of the compounds have been prepared according to the protocol described above, and subsequently solutions of the chemical compound to be assayed have been dissolved in DMSO at 50 mg/mL. […] Growth control and signal-to-noise control were also included. The final solvent (DMSO) concentrations never exceeded 0.5% (v/v) warranting no effect on parasite proliferation or morphology. After 48 h at 26 °C, 20 μL of a 2.5 mM resazurin solution was added to each well and the plates were returned to the incubator for another 3 h. […] Growth inhibition (%) was calculated by 100 – [(RFU treated wells – RFU signal-to-noise)/(RFU untreated – RFU signal-to-noise) × 100]. All tests were carried out in triplicate. Miltefosine (Sigma-Merck, Madrid, Spain) was used as the reference drug and was evaluated under the same conditions. […] The selectivity index (SI) was calculated as the ratio between cytotoxicity (CC50) and activity against parasites (IC50).

[3] = tested on: L. donovani (MHOM/IN/80/DD8) promastigotes; test: as above; assay type: cell-based; details: for SI (selectivity index, SI = CC50/IC50): CC50 J774 / IC50 L. donovani promastigotes; for IC50: Leishmania donovani, L. donovani promastigotes, 48 h at 26 °C, triplicate, N/A = not active at 100 μg/mL
Experimental: as §1

[4] = Cytotoxicity assay on macrophages (resazurin); assay type: cell-based, BALB/c mice; details: mouse, J774 macrophages, values marked e correspond to 100 μg/mL, the higher dose tested
Experimental: The assay was carried out as previously described.[30] J774 macrophages cell lines were seeded (5 × 10^4 cells/well) in 96-well flat-bottom microplates with 100 μL of RPMI 1640 medium. The cells were allowed to attach for 24 h at 37 °C and 5% CO2, and the medium was replaced by different concentrations of the compounds in 200 μL of medium and exposed for another 24 h. Growth controls and signal-to-noise were also included. Afterward, a volume of 20 μL of 2.5 mM resazurin solution was added, and plates were returned to the incubator for another 3 h to evaluate cell viability. The reduction of resazurin was determined by fluorometry as in the promastigote assay. Each concentration was assayed three times.

[5] = tested on: L. amazonensis amastigotes; test: In vitro intracellular amastigote susceptibility assay in J774 macrophages; assay type: cell-based; details: for IC50: Leishmania amazonensis, L. amazonensis intracellular amastigotes in J774, 48 h, N/A = not active at 100 μg/mL
Experimental: The following species of Leishmania were used: L. donovani (MHOM/IN/80/DD8) was purchased (ATCC, USA) and L. amazonensis (MHOM/Br/79/Maria) was kindly provided by Prof. Alfredo Toraño (Instituto de Salud Carlos III, Madrid). Promastigotes were cultured in Schneider’s insect medium supplemented with 10% heat-inactivated fetal bovine serum (FBS) and 1000 U/L of penicillin plus 100 mg/L of streptomycin in 25 mL culture flasks at 26 °C. The assay was carried out as previously described.[29] Briefly, 5 × 10^4 J774 macrophages and stationary promastigotes in a 1:5 ratio were seeded in each well of a microtiter plate, suspended in 200 μL of culture medium, and incubated for 24 h at 33 °C in a 5% CO2 chamber. After this first incubation, the temperature was increased up to 37 °C for another 24 h. Thereafter, cells were washed several times in culture medium by centrifugation at 1.500g for 5 min in order to remove free non-internalized promastigotes. Finally, the supernatant was replaced by 200 μL/well of culture medium containing 2-fold serial dilutions of the test compounds as in promastigotes assay. Growth control and signal-to-noise were also included. Following incubation for 48 h at 37 °C and 5% CO2, the culture medium was replaced by 200 μL/well of the lysis solution (RPMI-1640 with 0.048% HEPES and 0.01% SDS) and incubated at room temperature for 20 min. Thereafter, the plates were centrifuged at 3.500g for 5 min and the lysis solution was replaced by 200 μL/well of Schneider’s insect medium. The culture plates were then incubated at 26 °C for another 4 days to allow transformation of viable amastigotes into promastigotes and proliferation. Afterward, 20 μL/well of 2.5 mM resazurin was added and incubated for another 3 h. Finally, fluorescence emission was measured and IC50 was estimated as described above. All tests were carried out in triplicate. Miltefosine (Sigma-Merck, Madrid, Spain) was used as the reference drug and was evaluated under the same conditions. The IC50 and SI were calculated as in the previous section.

[6] = target: Leishmania donovani Promastigotes; parameters: method as in J. Med. Chem., ( 1991), 34, 9, 2798; details: ChEMBL dataset, some flagged Outside typical range, ref J. Med. Chem., ( 1991), 34, 9, 2798, read-out: vij, Ki; cited from earlier work
[7] = macrophages J774, 24 h exposure, Table 2
[8] = macrophages J774, Table 3 (amastigote assay table)

Compound | SI (selectivity index, SI = CC50/IC50) ([1]; CC50 J774 / IC50 L. donovani amastigotes) | IC50 [1] | SI (selectivity index, SI = CC50/IC50) [2] | IC50 [2] [µM] | SI (selectivity index, SI = CC50/IC50) [3] | IC50 [3] [µM] | CC50 at 24 h [4, 7] [µM] | CC50 at 24 h [4, 8] [µM] | SI (selectivity index, SI = CC50/IC50) ([5]; CC50 J774 / IC50 L. amazonensis amastigotes) | IC50 [5] [µM] | Ki [6] [µM]
O=C(c1ccc(Br)cc1)c1cccn1-c1ncccn1 [5af] | >1.45 | 211 ± 30.3 µM | >4.54 | 67.2 ± 4.94 | >2.58 | 118 ± 25.8 | > 305 | > 305 | >1.99 | 153 ± 9.11 | 
Cc1cccnc1-n1cccc1C(=O)c1ccc(C(C)(C)C)cc1 [5bc] |  | > 100 µg/mL | >10.17 | 30.9 ± 3.11 | >1.42 | 221 ± 36.9 | > 314 | > 314 |  | 60.6 ± 7.88 | 
C=CCCCC(N)C[C@H]1OC(n2cnc3c(N)ncnc32)[C@H](O)[C@@H]1O (stereo partly drawn) [CHEMBL607696] |  |  |  |  |  |  |  |  |  |  | 877
Nc1ncnc2c1ncn2C1O[C@H](C[C@@H](N)CC[C@@H](N)C(=O)O)[C@@H](O)[C@H]1O (stereo partly drawn) [CHEMBL608870] |  |  |  |  |  |  |  |  |  |  | 49
NCCC(CN)C[C@H]1OC(n2cnc3c(N)ncnc32)[C@H](O)[C@@H]1O (stereo partly drawn) [CHEMBL611866] |  |  |  |  |  |  |  |  |  |  | 1120
